In paper PMC7494739, “Evaluation of Artificial Intelligence in Participating Structure-Based Virtual Screening for Identifying Novel Interleukin-1 Receptor Associated Kinase-1 Inhibitors” (Frontiers in Oncology, 2020) one finds IC50, Kd and Inhibition/% data, which are given here for six molecules.

The target of one assay is IRAK1 kinase (Homo sapiens, UniProt P51617). Nature of the assay: IRAK1 bioactivity test (mobility shift assay). It is filed as biochemical. To be noted: for pIC50: Table 3, initial concentration 100 μM, serial 10-fold dilution to 1 nM.
The subject of assay [1] is IRAK1. The settings on record: Figure 1; cited from earlier work.
Assay [2] has as its target IRAK1. To be noted: Figure 1; cited from earlier work. This is another data set of the same source.

Each structure is given as a SMILES string. pIC50, pKd: −log10 of the molar value.

Sequence of IRAK1 kinase (P51617 whole entry): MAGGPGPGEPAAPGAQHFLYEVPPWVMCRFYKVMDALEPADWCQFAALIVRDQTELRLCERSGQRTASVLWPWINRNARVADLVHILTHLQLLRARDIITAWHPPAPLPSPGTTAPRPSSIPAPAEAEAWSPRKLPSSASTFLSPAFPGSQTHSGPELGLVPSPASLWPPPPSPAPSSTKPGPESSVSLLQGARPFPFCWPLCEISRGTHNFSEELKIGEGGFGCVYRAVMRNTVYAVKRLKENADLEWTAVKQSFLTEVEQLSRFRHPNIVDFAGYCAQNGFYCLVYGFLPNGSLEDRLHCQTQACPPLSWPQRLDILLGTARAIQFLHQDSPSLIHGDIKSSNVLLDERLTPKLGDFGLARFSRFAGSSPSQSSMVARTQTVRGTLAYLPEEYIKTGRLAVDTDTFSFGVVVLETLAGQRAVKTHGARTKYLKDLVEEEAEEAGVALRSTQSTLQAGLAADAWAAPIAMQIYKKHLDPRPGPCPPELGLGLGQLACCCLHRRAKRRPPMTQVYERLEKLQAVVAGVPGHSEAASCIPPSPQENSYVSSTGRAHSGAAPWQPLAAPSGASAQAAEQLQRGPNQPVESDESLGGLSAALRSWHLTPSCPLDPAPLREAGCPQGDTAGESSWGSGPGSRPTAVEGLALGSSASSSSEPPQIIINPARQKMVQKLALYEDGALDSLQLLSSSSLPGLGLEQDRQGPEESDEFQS

Usually pIC50 stands for −log10 of the IC50, conventionally taken in molar units. In the case of `COc1ccc(C(=O)c2coc3ccc(OCC(N)=O)cc23)cc1OC` [compound 5], the negative logarithm of the IC50 (pIC50) on IRAK1 kinase is 4.62.
On to `NC(=O)COc1ccc2occ(C(=O)c3ccc(Cl)cc3)c2c1` [compound 4], for which, on IRAK1 kinase, the pIC50 was 4.74.
With `O=C(Nc1nc2ccccc2n1CCN1CCOCC1)c1cccc([N+](=O)[O-])c1` [benzimidazole derivative 1], in the assay on IRAK1 [1], the negative logarithm of the IC50 (pIC50) was 6.52.
In general, pKd refers to −log10 of the Kd, conventionally taken in molar units. With `CC(C)NC(=O)[C@H]1CC[C@@H](n2/c(=N/C(=O)c3cc(F)cc(F)c3)[nH]c3ccc(CN4CCC(C(C)(C)O)CC4)cc32)CC1` [ALK inhibitor 2], the pKd at IRAK1 [2] was 8.25.
In the case of `C1=C/COCc2cc(ccc2OCCN2CCCC2)Nc2nccc(n2)-c2cccc(c2)COC/1` [JAK/FLT3 inhibitor 3, Pacritinib], in the assay on IRAK1 [1], the pIC50 is 7.87.
With `COc1cccc(Nc2nnc(-c3cc4ccc(O)cc4oc3=O)s2)c1` [K231-1211], the Inhibition/% at IRAK1 kinase (compound at 20 μM) is -10.5%.
